Measured values reported in PMC7407672 (Cells, 2020).

Legend:
GAL4(DBD)-mouse PXR(LBD) = target: T1, GAL4(DBD)-mouse PXR(LBD) (Mus musculus, UniProt O54915); assay: luciferase reporter transactivation in HG5LN GAL4-mPXR cells; type: cell-based; conditions: dabrafenib, SR12813, PCN 3 μM; clotrimazol 1 μM
T1 construct: together with the pSG5-GAL4(DBD)-h/m/zfPXR(LBD)-puro plasmids; expressed in transfected cells; host or cells: HeLa (HG5LN)
T1 sequence (O54915 143-430 limits assumed): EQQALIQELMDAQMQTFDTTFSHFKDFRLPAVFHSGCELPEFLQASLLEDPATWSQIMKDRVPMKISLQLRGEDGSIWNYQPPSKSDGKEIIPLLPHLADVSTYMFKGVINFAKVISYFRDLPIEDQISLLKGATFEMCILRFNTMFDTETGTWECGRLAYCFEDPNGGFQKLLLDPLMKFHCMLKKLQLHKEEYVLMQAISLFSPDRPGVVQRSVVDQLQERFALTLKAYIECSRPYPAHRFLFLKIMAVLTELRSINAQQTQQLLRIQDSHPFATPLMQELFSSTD
Text: (§1) The different reporter cell lines used in this study are summarized in Supplementary Table S1. HG5LN GAL4-m/zfPXR cells were obtained as previously reported for HG5LN GAL4-hPXR cells. Briefly, Hela cells were stably transfected with the GAL4RE5-βGlob-Luc-SVNeo plasmid alone or together with the pSG5-GAL4(DBD)-h/m/zfPXR(LBD)-puro plasmids leading to the HG5LN and HG5LN-h/m/zfPXR cell lines, respectively. HG5LN GAL4-hCAR and GAL4-hCAR-APYLT cells were obtained in the same way.

LS174T-hPXR cells [1] = assay: LS174T-hPXR proliferation assay (P-screen) after SPA70 pretreatment; type: cell-based, human; conditions: pretreated with SPA70 100 nM; 7 days; read-out: potency (EC50) on proliferation
Experimental: (§2) We developed a new proliferation test that we called the P-screen to measure the effects of compounds with PXR activity on the growth of LS174T-hPXR cells. This test uses the same principle as that for E-screen that was used for measuring the effects of estrogens on the proliferation of MCF-7 breast cancer cells. […] The medium was then removed, and cells were treated with increasing concentrations of the different compounds for 7 days. Medium was removed, and 0.1 mL of MTT solution (0.5 mg/mL) was added to each well. The MTT-containing medium was removed 4 h after incubation, and DMSO was added to each well. After shaking, the plates were read in absorbance at 540 nm. Results were expressed as percentage of proliferation with respect to the hormone-free control (100%). Data were obtained by dose–response curves plotted as percentage of proliferation as a function of concentrations.

[2] = tested on: hPXR target genes (CYP3A4, ABCG2, FGF19) in LS174T-hPXR cells; assay: RT-qPCR of hPXR target genes in LS174T-hPXR cells; type: cell-based, human
Experimental: (§3) Total RNA was isolated and purified using “Zymo Research—Quick RNA mini prep” kit for LS174T-hPXR cells and using Trizol reagent (Thermo Fisher Scientific, Illkirch-Graffenstaden, France) for primary human hepatocytes and HepaRG according to the manufacturer’s protocol. The concentration and the purity of isolated RNA were measured using a spectrophotometer NanoVue (GE health care life sciences, Velizy-Villacoublay, France). Reverse transcription was performed with the qScript cDNA SuperMix (VWR, Fontenay-sous-Bois, France) for LS174-hPXR and HepaRG cells and using a random hexaprimer and the MMLV Reverse Transcriptase Kit (Life Technologies) for primary human hepatocytes. Quantitative polymerase chain reactions were performed using SYBR green (Qiagen, Les Ulis, France) and specific primers (Supplementary Table S2) with the LightCycler®-480 real-time PCR system (Roche Diagnostics, Meylan, France). The relative amount of RNA was calculated with the 2^ΔΔCT method, and gene expression was normalized using GAPDH or RPLP0. In Figure 5AB, the level of expression was compared with the mean level of the corresponding gene expression in DMSO-treated cells and expressed as n-fold ratio.

[3] = tested on: CYP3A4 and CYP2B6 genes in primary human hepatocytes; assay: RT-qPCR of hPXR target genes in primary human hepatocytes; type: cell-based; conditions: three donors, 48 h
Text: Liver samples were obtained from the Biologic Resource Center of Montpellier University Hospital (CRB-CHUM; http://www.chumontpellier.fr; Biobank ID: BB-0033-00031), and this study benefitted from the expertise of Dr. Benjamin Rivière (hepatogastroenterology sample collection) and Dr. Edouard Tuaillon (CRB-CHUM manager). Samples were obtained from livers of adult patients who underwent liver resections for medical reasons unrelated to our research program, or from anonymous donors when the liver was considered unsuitable for organ transplantation. The use of human specimens for scientific purposes was approved by the French National Ethics Committee. Written or oral informed consent was obtained from each patient or family prior to surgery. The clinical characteristics of the liver donors are presented in Supplementary Table S2. Hepatocytes were isolated by using a two-step perfusion protocol and cultured as described previously.
as §3

[4] = tested on: PXR (GAL4(DBD)-zebrafish PXR(LBD)); assay: luciferase reporter transactivation in HG5LN GAL4-zfPXR cells; type: cell-based; conditions: read-out: activation of zebrafish PXR LBD (luciferase), fold induction
Text: as §1

LS174T-hPXR cells [5] = assay: MTT proliferation of LS174T-hPXR cells; type: cell-based, human
Experimental: as §2

CC(=O)[C@H]1[C@H](C#N)C[C@H]2[C@@H]3CC=C4C[C@@H](O)CC[C@]4(C)[C@H]3CC[C@@]21C [PCN, Pregnenolone 16 alpha-carbonitrile]
activation of mouse PXR LBD (luciferase) (GAL4(DBD)-mouse PXR(LBD)): Specific agonist effects

CCOP(=O)(OCC)C(=Cc1cc(C(C)(C)C)c(O)c(C(C)(C)C)c1)P(=O)(OCC)OCC [SR12813]
EC50 (LS174T-hPXR cells [1]): 38 nM
ABCG2 expression increase ([2]; 24 h): 12 fold
CYP3A4 expression increase ([2]; 24 h): 190 fold
concentration of maximal induction of CYP3A4 expression ([2]; 24 h): 1000 nM
FGF19 expression induction ([2]; highest concentration used (3 µM)): 4 fold
induction of CYP2B6 gene expression [3]: significantly induce
induction of CYP3A4 gene expression [3]: significantly induce

Clc1ccccc1C(c1ccccc1)(c1ccccc1)n1ccnc1 [clotrimazol]
fold induction at 16 h, 1 µM [4]: 5

SPA70
effect on agonist-activated proliferation (LS174T-hPXR cells [5]; SPA70 3 μM with 0.3 μM SR12813 or 0.3 μM dabrafenib): abrogated
effect on basal proliferation (LS174T-hPXR cells [5]; SPA70 3 μM, 7 days): significantly reduced
